Values quoted from earlier work, collected in EP4527389A1 (Laboratorios Farmacéuticos Rovi S.A., priority 2022, dated 2023).

Target: CYP2D6 (cytochrome P450 2D6) enzyme (Homo sapiens, UniProt P10635)
Details: three categories: strong, moderate, weak

Chain of CYP2D6 (cytochrome P450 2D6) enzyme (P10635 whole entry): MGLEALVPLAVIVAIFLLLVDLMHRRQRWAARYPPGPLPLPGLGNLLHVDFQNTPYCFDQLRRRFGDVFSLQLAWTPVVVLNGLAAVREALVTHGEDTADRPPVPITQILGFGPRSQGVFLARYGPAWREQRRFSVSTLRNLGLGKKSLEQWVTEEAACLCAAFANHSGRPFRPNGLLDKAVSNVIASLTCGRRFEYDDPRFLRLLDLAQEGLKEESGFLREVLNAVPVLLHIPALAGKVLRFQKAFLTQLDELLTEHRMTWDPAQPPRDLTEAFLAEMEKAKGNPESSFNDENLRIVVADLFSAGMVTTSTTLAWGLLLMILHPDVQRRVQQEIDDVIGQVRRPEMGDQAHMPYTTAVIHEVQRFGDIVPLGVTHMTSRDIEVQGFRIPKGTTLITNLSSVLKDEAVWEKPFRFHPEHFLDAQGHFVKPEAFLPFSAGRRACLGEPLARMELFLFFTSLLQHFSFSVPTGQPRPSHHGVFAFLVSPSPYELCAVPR

Row | SMILES | CYP2D6 enzyme inhibitor category
1 | C[C@]12CC[C@H](O)CC1=CC[C@@H]1[C@@H]2CC[C@]2(C)C(c3cccnc3)=CC[C@@H]12 [abiraterone] | moderate inhibitor
2 | Cc1ccc(-c2cc(C(F)(F)F)nn2-c2ccc(S(N)(=O)=O)cc2)cc1 [celecoxib] | weak inhibitor
3 | CN/C(=N/CCSCc1nc[nH]c1C)NC#N [cimetidine] | weak inhibitor
4 | C[C@@H](NCCCc1cccc(C(F)(F)F)c1)c1cccc2ccccc12 [cinacalcet] | moderate inhibitor
5 | CN1C(=O)CC(=O)N(c2ccccc2)c2cc(Cl)ccc21 [clobazam] | weak inhibitor
6 | CC(C)c1nc(CN(C)C(=O)N[C@@H](CCN2CCOCC2)C(=O)N[C@H](CC[C@H](Cc2ccccc2)NC(=O)OCc2cncs2)Cc2ccccc2)cs1 [cobicistat] | weak inhibitor
7 | CN(C)CCC[C@@]1(c2ccc(F)cc2)OCc2cc(C#N)ccc21 [escitalopram] | weak inhibitor
8 | CC(CCc1ccccc1)NCC(O)c1ccc(O)c(C(N)=O)c1 (stereo not drawn) [labetalol] | weak inhibitor
9 | C[C@H]1CNCCc2ccc(Cl)cc21 [lorcaserin] | moderate inhibitor
10 | Nc1nc(CC(=O)Nc2ccc(CCNC[C@H](O)c3ccccc3)cc2)cs1 [mirabegron] | moderate inhibitor
11 | Fc1ccc([C@@H]2CCNC[C@H]2COc2ccc3c(c2)OCO3)cc1 [paroxetine] | strong inhibitor
12 | C=C[C@H]1C[N@@]2CC[C@H]1C[C@@H]2[C@@H](O)c1ccnc2ccc(OC)cc12 [quinidine] | strong inhibitor
13 | CN[C@H]1CC[C@@H](c2ccc(Cl)c(Cl)c2)c2ccccc21 [sertraline] | weak inhibitor
14 | CN(C/C=C/C#CC(C)(C)C)Cc1cccc2ccccc12 [terbinafine] | strong inhibitor
15 | CCCS(=O)(=O)Nc1ccc(F)c(C(=O)c2c[nH]c3ncc(-c4ccc(Cl)cc4)cc23)c1F [vemurafenib] | weak inhibitor

System: not given
Details: daily paroxetine 20 mg in patients stabilized on risperidone (4 to 8 mg/day)

Row | SMILES | decrease of 9-hydroxyrisperidone concentrations | increase of concentrations of the active moiety (the sum of risperidone plus 9-hydroxyrisperidone) | increase of mean plasma concentrations of risperidone
16 | Fc1ccc([C@@H]2CCNC[C@H]2COc2ccc3c(c2)OCO3)cc1 [paroxetine] | approximately 10% | approximately 1.4 fold | approximately 4 fold
